Entries after “also recorded” stand apart in the source; their conditions may differ.
Columns and labels:
[1] = target: T1, ER (Homo sapiens, UniProt P03372); assay: htSMT change in fbound of Halo-ER in U2OS cells; assay type: cell-based; details: for change in fbound of ER: versus DMSO, bioactive screen at 1 μM compound
T1 construct: expressed in transfected cells; host or cells: U2OS
T1 sequence (P03372 1-595): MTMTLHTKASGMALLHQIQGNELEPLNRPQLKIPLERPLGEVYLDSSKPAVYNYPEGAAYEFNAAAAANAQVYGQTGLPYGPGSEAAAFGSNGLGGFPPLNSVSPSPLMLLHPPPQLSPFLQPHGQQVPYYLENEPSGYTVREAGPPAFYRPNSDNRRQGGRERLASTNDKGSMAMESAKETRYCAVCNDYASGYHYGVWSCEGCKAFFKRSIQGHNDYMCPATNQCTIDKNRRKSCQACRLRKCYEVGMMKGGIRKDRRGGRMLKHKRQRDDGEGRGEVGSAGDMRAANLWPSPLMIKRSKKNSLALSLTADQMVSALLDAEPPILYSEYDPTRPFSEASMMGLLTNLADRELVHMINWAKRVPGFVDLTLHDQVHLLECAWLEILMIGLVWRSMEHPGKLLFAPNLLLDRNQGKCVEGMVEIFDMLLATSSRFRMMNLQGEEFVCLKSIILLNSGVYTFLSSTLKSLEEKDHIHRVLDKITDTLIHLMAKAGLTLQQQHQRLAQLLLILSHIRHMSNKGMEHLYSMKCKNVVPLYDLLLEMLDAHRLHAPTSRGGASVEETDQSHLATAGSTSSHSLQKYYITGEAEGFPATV

[2] = target: T1, ER; assay: Western blot of ER after 24 hours compound treatment; assay type: cell-based; details: 100 nM fulvestrant, MCF7, T47d, Halo-ER U2OS
Protocol: Cells were grown in the same conditions as described previously. […] Cells are lysed in 200 μL 1× Cell Lysis Buffer (catalogue number 9803, Cell Signaling). Protein lysate concentration is then determined using BCA protein assay kit (Catalog number 23225, Pierce™ BCA Protein Assay Kit) following manufacturer instructions. Capillary Western Immunoassay were performed using Jess Protein Simple following manufacturer's instruction (protein simple, USA). Levels of αER (1:100, RM-9101) were normalized to loading control β-tubulin (1:100, NC0244815 LI-COR 92642213, Thermo Fisher). The peaks were analyzed with the Compass software (Protein Simple, USA).

[3] = target: T1, ER; assay: kinetic SMT (kSMT) of ER after compound addition; assay type: cell-based; details: for t1/2 of increase in fbound: 100 nM compound, single exponential fit; for time at which overall effect on ER movement reaches a plateau: FIG. 16C
[4] = target: T1, ER; assay: residence time imaging of ER-Halo cells (track length survival); assay type: cell-based; details: 100 nM HSP90 inhibition, versus DMSO, FIG. 16E
[5] = target: AR (Homo sapiens, UniProt P10275)
[6] = target: T2, GR (Homo sapiens, UniProt P04150); assay: htSMT fbound of GR-HaloTag in U2OS cells; assay type: cell-based; details: 1 μM antagonist, singly or co-administered with the cognate agonist
T2 construct: Because U2OS cells express GR endogenously; endogenous in cells; host or cells: U2OS (CRISPR/Cas9 knock-in at the endogenous locus)
T2 sequence (P04150 1-777): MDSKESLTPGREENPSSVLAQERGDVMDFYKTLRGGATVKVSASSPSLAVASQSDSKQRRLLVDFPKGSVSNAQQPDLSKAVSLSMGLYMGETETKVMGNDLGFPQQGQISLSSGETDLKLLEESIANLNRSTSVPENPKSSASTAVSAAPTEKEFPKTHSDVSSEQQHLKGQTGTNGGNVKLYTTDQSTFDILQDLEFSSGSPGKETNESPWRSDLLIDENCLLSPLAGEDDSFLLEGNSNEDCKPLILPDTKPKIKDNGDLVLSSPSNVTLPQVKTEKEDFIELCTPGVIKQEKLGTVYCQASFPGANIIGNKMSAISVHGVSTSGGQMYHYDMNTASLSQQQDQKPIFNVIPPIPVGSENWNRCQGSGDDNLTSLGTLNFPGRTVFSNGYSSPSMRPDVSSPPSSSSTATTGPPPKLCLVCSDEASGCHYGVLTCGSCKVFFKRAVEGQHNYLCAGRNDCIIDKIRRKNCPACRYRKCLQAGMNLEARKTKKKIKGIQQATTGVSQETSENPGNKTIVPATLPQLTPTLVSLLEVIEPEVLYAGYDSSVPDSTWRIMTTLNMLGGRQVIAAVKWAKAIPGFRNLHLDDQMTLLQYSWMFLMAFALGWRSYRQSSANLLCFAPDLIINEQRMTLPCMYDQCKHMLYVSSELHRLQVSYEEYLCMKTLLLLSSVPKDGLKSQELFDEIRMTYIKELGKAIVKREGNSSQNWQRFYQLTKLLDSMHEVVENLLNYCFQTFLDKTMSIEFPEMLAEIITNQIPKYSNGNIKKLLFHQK
Excerpt: Where appropriate, compounds were serially diluted in an Echo Qualified 384-Well Low Dead Volume Source Microplate (0018544, Beckman Coulter) to generate dose-titration source material.

Chain of AR (P10275 whole entry): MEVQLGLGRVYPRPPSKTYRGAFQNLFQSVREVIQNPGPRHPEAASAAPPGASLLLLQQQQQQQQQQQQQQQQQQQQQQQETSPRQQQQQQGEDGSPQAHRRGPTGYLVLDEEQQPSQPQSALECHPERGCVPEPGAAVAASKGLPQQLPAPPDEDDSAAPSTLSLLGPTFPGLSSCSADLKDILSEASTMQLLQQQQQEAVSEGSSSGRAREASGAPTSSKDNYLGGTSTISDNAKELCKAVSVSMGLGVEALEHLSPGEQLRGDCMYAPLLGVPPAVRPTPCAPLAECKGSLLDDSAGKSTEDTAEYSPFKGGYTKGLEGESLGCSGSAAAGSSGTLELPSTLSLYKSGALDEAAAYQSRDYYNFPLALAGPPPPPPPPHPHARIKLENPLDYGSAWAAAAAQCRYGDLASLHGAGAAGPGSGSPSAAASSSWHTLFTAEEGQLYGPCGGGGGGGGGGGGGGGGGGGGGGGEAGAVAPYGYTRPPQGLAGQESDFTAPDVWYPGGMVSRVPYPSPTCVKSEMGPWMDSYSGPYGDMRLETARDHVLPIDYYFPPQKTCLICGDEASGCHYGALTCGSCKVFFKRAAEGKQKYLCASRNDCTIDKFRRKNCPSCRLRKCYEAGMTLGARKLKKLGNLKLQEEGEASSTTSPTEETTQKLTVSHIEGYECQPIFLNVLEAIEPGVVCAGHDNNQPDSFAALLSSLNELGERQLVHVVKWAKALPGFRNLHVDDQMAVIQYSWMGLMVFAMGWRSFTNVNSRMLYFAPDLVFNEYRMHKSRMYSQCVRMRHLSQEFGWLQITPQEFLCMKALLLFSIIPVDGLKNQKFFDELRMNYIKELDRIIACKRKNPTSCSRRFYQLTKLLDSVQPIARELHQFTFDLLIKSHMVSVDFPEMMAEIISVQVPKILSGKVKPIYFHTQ

| change in fbound of ER [1] | t1/2 of increase in fbound [3] | time at which overall effect on ER movement reaches a plateau [3] | Molecule | decrease in the total number of long binding events [4] | also measured |
| --- | --- | --- | --- | --- | --- |
| an increase in fbound | 17.5 min | plateau after an hour | COc1cccc(-c2cc(F)ccc2[C@H]2Cc3nc(N)nc(C)c3C(=O)N2)n1 [HSP990] | two | – |
| significantly increased fbound | – | – | 4-hydroxytamoxifen | – | maximal increase in fbound of ER ([1]; compared with the SERDs fulvestrant and GDC-0927, FIG. 14D): lower maximal increases in fbound |
| an increase in fbound | 19.3 min | plateau after an hour | CC(C)c1cc(-c2n[nH]c(=O)n2-c2ccc3c(ccn3C)c2)c(O)cc1O [ganetespib] | four | – |
| – | – | – | CC(O)c1cc(C(=O)N[C@@H](C)Cn2ccc(-c3ccc(C#N)c(Cl)c3)n2)[nH]n1 (some centres unmarked) [Darolutamide] | – | change in chromatin binding (fbound) of AR [5]: decrease in chromatin binding |
| – | – | – | CN(C)c1ccc(C(c2ccc(N(C)C)cc2)c2cc([N+](=O)[O-])ccc2Cl)cc1 [AL082D06] | – | change in chromatin binding (fbound) of GR [6]: decrease in chromatin binding |

| Molecule | change in fbound of ER [1] | t1/2 of increase in fbound [3] | time at which overall effect on ER movement reaches a plateau [3] | decrease in the total number of long binding events [4] | also measured |
| --- | --- | --- | --- | --- | --- |
| C[C@]12CC[C@@H]3c4ccc(O)cc4C[C@@H](CCCCCCCCC[S+]([O-])CCCC(F)(F)C(F)(F)F)[C@H]3[C@@H]1CC[C@@H]2O (some centres unmarked) [fulvestrant] | caused an increase in fbound; also recorded: significantly increased fbound | – | – | – | ER degradation (western blot) [2]: leads to the degradation of ER |

Source: US20250314639A1, “SYSTEMS AND METHODS FOR HIGH THROUGHPUT SINGLE MOLECULE TRACKING IN LIVING CELLS” (EIKON THERAPEUTICS, INC., priority 2022, published 2025)
